Data as given in patent publication US11850238B2, “Use of a thienopyridone derivative in the treatment of adrenoleukodystrophy or adrenomyeloneuropathy” (POXEL, priority 2020, dated 2023).

Legend:
ABCD1-KO mice = test: In vivo X-ALD mouse, 60 days: VLCFA (C26:0) in brain cortex and plasma; conditions: male ABCD1-KO mice, 75 mg/kg oral gavage twice a day
Method: Male ABCD1-KO mice (n=15) were treated with oral gavage of PXL770 (75 mg/kg) twice a day, every day for 60 days. Untreated ABCD1-KO mice (n=15) and wild-type (WT) mice (n=12) served as controls. Post-treatment mice were sacrificed and brain cortex and plasma were collected for VLCFA analysis. The analysis was performed according to the standardized protocols of the Lipidomics Core Facility and data are expressed as VLCFA μg/ml levels. Hexacosanoic acid (C26:0) was selected as representative for VLCFAs.
A one-way ANOVA with Dunnett's multiple comparison test was performed to assess the effect of PXL770 on brain's VLCFAs (**** p<0.0001, *** p<0.001). A Kruskal-Wallis test with Dunn's multiple comparison test was performed to assess the effect of PXL770 on plasma's VLCFAs (**** p<0.0001, […]).

[1] = tested on: ALD patient-derived lymphocytes; test: Hexacosanoic acid (VLCFA) level in ALD patient-derived lymphocytes; type: cell-based, human
Method: After studies on cells from patients with the […] of ALD (AMN) the inventors replicated the same study method as in example 1 to analyze the effect of PXL770 on cells from X-ALD patients (severe inflammatory phenotype).
The experiments described in Examples 3 and 7 were performed with metformin by the same lab and described by Singh et al. in Journal of Neurochemistry, 2016; 138, 86-100.

[2] = tested on: ALD-KO mouse-mixed glial cells; test: Hexacosanoic acid (VLCFA) level in ALD-KO mouse mixed glial cells; type: cell-based; conditions: 25 μM, FIG. 3
Method: The inventors carried out a study of the measurement of VLCFA accumulation in AMN mouse-mixed glial cells when they are not undergoing any treatment and when they are treated with PXL770 at different doses.
C57BL6 mouse breeding pairs were purchased from Jackson Laboratory (Bar Harbor, ME) and maintained at the Henry Ford Health System (HFHS) animal facility. All animal procedures were approved by the HFHS Animal Review Committee and all animals received humane care in compliance with the HFHS experimental guidelines and the National Research Council's criteria for humane care (Guide for Care and Use of Laboratory Animals). Mouse with Abcd1 gene knocked-out were raised and used to extract mixed glial cells. Primary astrocyte-enriched cultures were prepared from the whole cortex of 1-day-old C57BL/6 mice. Briefly, the cortex was rapidly dissected in ice-cold calcium/magnesium-free HBSS at pH 7.4 as described previously. The tissue was minced, incubated in HBSS containing trypsin (2 mg/ml) for 20 min, and washed twice in plating medium containing 10% FBS and 10 μg/ml gentamicin and then disrupted by triturating through a Pasteur pipette, after which cells were seeded in 75-cm^2 culture flasks (Falcon, Franklin, NJ). […]
Hexacosanoic acid level in six groups of mixed glial cells was measured. […]

ABCD2 [3] = test: Western blot of ABCD2 expression in ALD patient fibroblasts; type: cell-based, human; conditions: especially at low concentration (5 μM), FIG. 6
Method: (§1) The experiments described in Examples 4 and 6 were performed with metformin by the same lab and described by Singh et al. in Journal of Neurochemistry, 2016; 138, 86-100.

ABCD2 [4] = test: Western blot of ABCD2 expression in AMN fibroblasts; type: cell-based, human; conditions: AMN fibroblasts, 5, 10, 25 μM, vs control and untreated AMN fibroblasts; FIG. 2
Method: More specifically, protein extraction was performed as follows.
The cells were washed with cold Tris-buffered saline (20 mM Trizma base and 137 mM NaCl, pH 7.5) and lysed in 1×SDS sample-loading buffer (62.5 mM Trizma base, 2% [w/v] SDS, 10% glycerol), and after sonication and centrifugation at 15,000 g for 5 min, the supernatant was used for the immunoblot assay. The protein concentration of samples was determined with the detergent compatible protein assay reagent (Bio-Rad) using BSA as the standard. The sample was boiled for 3 min with 0.1 volumes of 10% β mercaptoethanol and 0.5% bromphenol blue mix. Then, 40 μg of total cellular protein was resolved by electrophoresis on 8 or 12% polyacrylamide gels, electrotransferred and blocked with Tween 20-containing Tris-buffered saline (TBST; 10 mM Trizma base, pH 7.4, 1% Tween 20, and 150 mM NaCl) with 5% skim milk. After incubation with antibodies against ABCD2, ABCD3, and (β-actin at 4^0 overnight, the membranes were then washed with TBST and incubated with horseradish peroxidase-conjugated anti-rabbit or mouse IgG for 1 h at room temperature. The membranes were detected by autoradiography using ECL-plus (Amersham Biosciences) after washing with TBST buffer.
as §1

[5] = ALD lymphocytes, increasing concentrations, FIG. 5

Q: Which results are given for `O=c1[nH]c2sc(Cl)c(-c3ccc4c(c3O)CCCC4)c2c([O-])c1-c1ccccc1.[K+]` [PXL770, monohydrate potassium salt of 2-chloro-4-hydroxy-3-(5-hydroxytetralin-6-yl)-5-phenyl-7H-thieno[2,3-b]pyridin-6-one]?
A: VLCFA accumulation in the brain cortex (ABCD1-KO mice; FIG. 7): significantly reduces; VLCFA accumulation in the plasma (ABCD1-KO mice; FIG. 8): significantly reduces; level of hexacosanoic acid [1, 5]: decreases; level of hexacosanoic acid compared to healthy controls [1, 5]: same level as that present in lymphocytes of healthy controls; VLCFA content, normalization ([1]; ALD patient cells, 5 μM): normalization effect; accumulation of hexacosanoic acid [2]: decreases; expression of ABCD2 (Western blot) (ABCD2 [3]): overexpression; expression of ABCD2 (Western blot) (ABCD2 [4]): overexpression
